The values below come from patent US7671074B2, “Sulfonylguanidine compounds and pharmaceutical uses thereof” (Gruenenthal GmbH, priority 2000, dated 2010).

The target in one assay is gabapentin binding site. Briefly: Binding assay: displacement of gabapentin from its binding site. To be noted: for IC50: displacement of gabapentin from its binding site; for Percent inhibition: inhibition/displacement of gabapentin, concentration 10^−5 μM [sic]. The protocol:
Gabapentin was used in a binding assay in order to check the binding and affinities of the selected compounds. The affinity of the compounds according to the invention was measured via the displacement of gabapentin from its binding site.

Assay [1] concerns male Sprague-Dawley rats with L5/L6 spinal nerve ligatures. The assay can be described thus: In vivo experiments according to Chung (spinal nerve ligation, tactile withdrawal threshold). Also on record: species or system rat. To be noted: for ED50: Rattus norvegicus; for effect compared with gabapentin: Chung test; for effect compared with gabapentin / effect in the Chung test: result in words. The protocol:
In male Sprague-Dawley rats spinal nerve ligatures were applied according to Kim and Chung (1992) to the left L5/L6 spinal nerves. At the same time spinal catheters were implanted according to Pogatzki et al. ^6 (2000). 4 to 6 days after the operation the tactile threshold baseline (withdrawal thresholds) was measured on the ipsilateral and contra lateral rear paw by an electronic vonFrey anaesthesiometer (IITC Life Science, USA). […] After the test and baseline measurement, gabapentin and substances according to the invention were administered. The tactile withdrawal thresholds were measured 30 minutes after administration. The results are expressed as ED50 and % maximal possible effect (% MPE; % of the maximal possible effect) on the ipsilateral side, in which the baseline is taken as 0% and the withdrawal threshold of a control group is taken as 100% MPE.

In assay [2] the test system is male albino mice (NMRI), formalin-induced nociception. Briefly: Formalin test on mice (second phase). It counts as in vivo, mouse. The following applies: for ED50: Mus musculus. The method, then: The investigations to determine the antinociceptive action of the compounds according to the invention were carried out by the formalin test on male albino mice (NMRI, 25-35 g, Iffa Credo, Belgium).
In the formalin test the first (early) phase (0-15 minutes after the formalin injection) and the second (late) phase (15-60 minutes after the formalin injection) differ (D. Dubuisson et al., Pain, Vol. 4, pp. 161-174 (1977)). The early phase, being a direct reaction to the formalin injection, constitutes a model for acute pain, whereas the late phase is regarded as a model for persistent (chronic) pain (T. J. Coderre et al., Pain, Vol. 52, pp. 259-285 (1993)).
The compounds according to the invention were investigated in the second phase of the formalin test in order to obtain information on the effects of substances in chronic/inflammatory pain. By means of a single subcutaneous formalin injection (20 μl, 1% aqueous solution) into the dorsal side of the right-hand rear paw, a nociceptive reaction was induced in unconstrained experimental animals, manifested in a noticeable licking and biting of the affected paw.
The nociceptive behavior for the test period in the second (late) phase of the formalin test was continuously monitored by observing the animals. The pain reaction was quantified by totaling the time in seconds during which the animals continued to lick and bite the affected paw during the investigation period. After injecting substances that have an antinociceptive effect in the formalin test, the aforedescribed behavior pattern of the animals is reduced or possibly even cancelled.
Corresponding to the substance tests, in which the animals had been injected with the test substance before formalin, the control animals were injected with a vehicle, i.e. solvent (e.g. 0.9% NaCl solution) before the formalin injection. […]
Based on the quantification of the pain reaction, the effect of the substance in the formalin test was determined as the change in the control in percentage terms. […]

[3] abbreviates: read-out:, table title: Analgesia testing in rats according to Chung, further investigation.

SMILES strings stand for the structures. Like-named read-outs stand apart in the source and are kept apart here.

As usually defined, the IC50 is the concentration needed to halve the response being measured. A high value points to weaker potency. For orientation: ED50 means the dose that gives a 50% effect, or the effect in half of the subjects. Regarding `Cc1ccc(S(=O)(=O)/N=C(\N)NCc2ccccn2)cc1` [Example 1], at gabapentin binding site, the IC50 came out at 421 nM and the Percent inhibition turned out to be 82%. Further, the ED50 in assay [1] (0.5 h, rats, Chung model, tactile withdrawal thresholds 30 minutes after administration, ipsilateral side, read-out: ED50) is around 25 mg/kg. The ED50 in assay [1] (setting [3]) was in the range of 10 to 20 mg/kg. The “superiority to gabapentin (factor)” value in assay [1] (rats, Chung model, ED50 compared with gabapentin) is given as 4. Besides, in assay [1] (rats, further investigation), the “effect compared with gabapentin” value is recorded as “superior in their effect to gabapentin” and the “effect in the Chung test” value was “show an effect”.

On to `N/C(=N\S(=O)(=O)c1ccc(Cl)cc1)NCc1ccccn1` [Example 21, N-{amino-[(pyridin-2-yl-methyl)-amino]-methylene}-4-chlorobenzenesulfonamide], for which, on gabapentin binding site, the IC50 stood at 779 nM and the Percent inhibition was found to be 75%. Further, in assay [2] (second (late) phase of the formalin test, read-out: Formalin Test on Mice - ED50), the median effective dose (ED50) worked out at 97 mg/kg. Further, the “inhibition of the formalin-induced nociception” value in assay [2] (result in words) is “exhibited an inhibition of the formalin-induced nociception”. The ED50 in assay [1] (setting [3]) amounted to 13.3 mg/kg. In assay [1] (rats, further investigation), the “effect compared with gabapentin” value is given as “superior in their effect to gabapentin” and the “effect in the Chung test” value was “show an effect”.

At gabapentin binding site, `CC(C)(C)c1ccc(S(=O)(=O)/N=C(/N)NCc2ccccn2)cc1` [Example 49, N-{amino[(pyridin-2-yl-methyl)-amino]-methylene}-4-tert.-butylbenzenesulfonamide] came in with a concentration for half-maximal inhibition (IC50) of 90 nM.

In the case of `CCCCc1ccc(S(=O)(=O)/N=C(\N)NCc2ccccn2)cc1` [Example 50, N-{amino[(pyridin-2-yl-methyl)-amino]-methylene}-4-butylbenzenesulfonamide], at gabapentin binding site, the half-maximal inhibitory concentration (IC50) was 170 nM.

In the assay with gabapentin binding site, `CC(C)(C)c1ccc(S(=O)(=O)/N=C(/N)NCc2ncccn2)cc1.Cl` [Example 51] came in with a Percent inhibition of 5%.

Turning to `CCCCc1ccc(S(=O)(=O)/N=C(/N)NCc2ccco2)cc1.Cl` [Example 52, N-{amino[(furan-2-yl-methyl)-amino]-methylene}-4-butylbenzenesulfonamide], the Percent inhibition with gabapentin binding site is recorded as 47%.

`Cc1ccc(S(=O)(=O)/N=C(/N)NCc2ccco2)cc1.Cl` [Example 53, N-{amino[(furan-2-yl-methyl)-amino]-methylene}-4-methylbenzenesulfonamide] yielded a Percent inhibition in the assay on gabapentin binding site of 26%.

`CC(C)c1ccc(S(=O)(=O)/N=C(/N)NCc2ccco2)cc1` [Example 54, N-{amino[(furan-2-yl-methyl)-amino]-methylene}-4-isopropylbenzenesulfonamide] came in with an IC50 at gabapentin binding site of 3510 nM.

The molecule `CCCc1ccc(S(=O)(=O)/N=C(/N)NCc2ccco2)cc1` [Example 55, N-{amino[(furan-2-yl-methyl)-amino]-methylene}-4-propylbenzenesulfonamide] displayed an IC50 on gabapentin binding site of 3200 nM.

Take `CC(C)(C)c1ccc(S(=O)(=O)/N=C(/N)NCc2ccco2)cc1.Cl` [Example 56, N-{amino[(furan-2-yl-methyl)-amino]-methylene}-4-tert.-butylbenzenesulfonamide]: in the assay with gabapentin binding site, the Percent inhibition came out at 49%.

In turn, `CCCCc1ccc(S(=O)(=O)/N=C(/N)NCc2cccs2)cc1.Cl` [Example 57, N-{amino[(thiophen-2-yl-methyl)-amino]-methylene}-4-butylbenzenesulfonamide] showed a Percent inhibition with gabapentin binding site of 41%.

For `CCCc1ccc(S(=O)(=O)/N=C(/N)NCc2cccs2)cc1` [Example 58, N-{amino[(thiophen-2-yl-methyl)-amino]-methylene}-4-propylbenzenesulfonamide], on gabapentin binding site, the 50% inhibitory concentration (IC50) stood at 1820 nM.

Molecule `CC(C)c1ccc(S(=O)(=O)/N=C(/N)NCc2cccs2)cc1` [Example 59, N-{amino[(thiophen-2-yl-methyl)-amino]-methylene}-4-isopropylbenzenesulfonamide] displayed a 50% inhibitory concentration (IC50) on gabapentin binding site of 970 nM.

On to `CC(C)(C)c1ccc(S(=O)(=O)/N=C(/N)NCc2cccs2)cc1` [Example 60, N-{amino[(thiophen-2-yl-methyl)-amino]-methylene}-4-tert.-butylbenzenesulfonamide], for which the IC50 on gabapentin binding site is 5690 nM.

In the assay on gabapentin binding site, `Cl.N/C(=N/S(=O)(=O)c1ccc(Cl)cc1)NCc1cccs1` [Example 61, N-{amino[(thiophen-2-yl-methyl)-amino]-methylene}-4-chlorobenzenesulfonamide] had a Percent inhibition of 24%.

With `Cc1ccc(S(=O)(=O)/N=C(/N)NCc2cccs2)cc1.Cl` [Example 62, N-{amino[(thiophen-2-yl-methyl)-amino]-methylene}-4-methylbenzenesulfonamide], the Percent inhibition in the assay with gabapentin binding site is 29%.

Regarding `Cl.N/C(=N/S(=O)(=O)c1ccc(Cl)cc1)NCc1ccco1` [Example 63, N-{amino[(furan-2-yl-methyl)-amino]-methylene}-4-chlorobenzenesulfonamide], the Percent inhibition in the assay with gabapentin binding site is recorded as 23.5%.

As to `NCC1(CC(=O)O)CCCCC1` [gabapentin, reference compound], the median effective dose (ED50) was found to be 79 mg/kg in assay [2] (iv, formalin test, i.v., read-out: ED50 value) and 92.6 mg/kg in assay [1] (0.5 h).
